Laboratory results as given in patent publication US20260109707A1, “HETEROBIFUNCTIONAL COMPOUNDS AND METHODS OF TREATING DISEASE” (Halda Therapeutics OpCo. Inc., priority 2022, published 2026).
Where two headings read alike, the source gives them in different places.

Experiments:
[1] = test system: T-Rex 293 cell line SC3 cells having increased expression of androgen receptor protein due to exposure to doxycycline; experiment: Cellular growth inhibition assay, T-Rex 293 SC3 cells with doxycycline (CellTiter-Glo, 72 hours); format: cell-based; settings: T-Rex 293 SC3 cells with increased androgen receptor expression due to doxycycline (10 ng/mL)
How it was run: (§1)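 Growth inhibition is measured in an inducible AR-expressing T-Rex 293 clone, SC3, cultured with or without 10 ng/mL doxycycline in hormone-depleted medium. Test compounds are applied for 72 hours. GI50 values derive from CellTiter-Glo 2.0 signal fitted by four-parameter regression.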

[2] = test system: VCaP cells; experiment: Cellular growth inhibition assay for VCaP cells (CellTiter-Glo, 72 hours); format: cell-based, human
How it was run: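 Luminescent viability signal after 72 h of compound exposure gave GI50 values by four-parameter nonlinear regression. Compounds were added in 0.5% DMSO to cells plated 24 h earlier at 5000/well in DMEM containing 10% FBS.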

[3] = test system: T-Rex 293 cell line SC3 cells lacking increased expression of androgen receptor protein; experiment: Cellular growth inhibition assay, T-Rex 293 SC3 cells without doxycycline (CellTiter-Glo, 72 hours); format: cell-based; settings: T-Rex 293 cell line SC3 cells not exposed to doxycycline (lacking increased androgen receptor expression)
How it was run: as §1

Structure (SMILES)	GI50 [1] [µM]	GI50 [2] [µM]	GI50 [3] [µM]	GI50 ([2]; Homo sapiens, VCaP, 72 h) [µM]	GI50 ([1]; 72 h) [µM]	GI50 ([3]; 72 h) [µM]
Cc1sc2c(c1C)C(c1ccc(OC3CCC4(C3)CN(c3ccc(C(=O)N[C@H]5CC[C@H](Oc6ccc(C#N)c(Cl)c6)CC5)nn3)CCO4)cc1)=NC1(CC1)c1nnc(C)n1-2 (stereo partly drawn) [I-507]	< 0.5	> 3	> 3			
Cc1sc2c(c1C)C(c1ccc(OC3CCC4(C3)CN(c3ccc(C(=O)N[C@H]5CC[C@H](Oc6ccc(C#N)c(Cl)c6)CC5)nn3)CCO4)cc1)=NC1(CC1)c1nnc(C)n1-2 (stereo partly drawn) [I-508]	< 0.5	< 0.5	> 3			
Cc1sc2c(c1C)C(c1ccc(COC3CCC4(CCCN(c5ccc(C(=O)N[C@H]6CC[C@H](Oc7ccc(C#N)c(Cl)c7)CC6)nn5)C4)C3)cc1)=NC1(CC1)c1nnc(C)n1-2 (stereo partly drawn) [I-509]	< 0.5		> 3	> 3		
CC[C@@H]1N=C(c2ccc(N3CCC4(CCCN(c5ccc(C(=O)N[C@H]6CC[C@H](Oc7ccc(C#N)c(Cl)c7)CC6)nn5)C4)CC3)cc2)c2c(sc(C)c2C)-n2c(C)nnc21 [I-510]				> 3	< 0.5	< 0.5
Cc1sc2c(c1C)C(c1ccc(N3C[C@@H]4CN(c5ccc(C(=O)N[C@H]6CC[C@H](Oc7ccc(C#N)c(Cl)c7)CC6)nn5)C[C@@H]4C3)cc1)=N[C@@H](C)c1nnc(C)n1-2 [I-511]				< 0.5	< 0.5	< 0.5
Cc1sc2c(c1C)C(c1ccc(COC3CCC4(CCCN(c5ccc(C(=O)N[C@H]6CC[C@H](Oc7ccc(C#N)c(Cl)c7)CC6)nn5)C4)C3)cc1)=N[C@@H](C)c1nnc(C)n1-2 (stereo partly drawn) [I-513]	< 0.5	0.5 to 1.5				< 0.5
Cc1sc2c(c1C)C(c1ccc(COC3CCC4(CCCN(c5ccc(C(=O)N[C@H]6CC[C@H](Oc7ccc(C#N)c(Cl)c7)CC6)nn5)C4)C3)cc1)=N[C@@H](C)c1nnc(C)n1-2 (stereo partly drawn) [I-514]		1.5 to 3	< 0.5		< 0.5	
Cc1sc2c(c1C)C(c1ccc(N3CC4(CCC(Cc5ccc(C(=O)N[C@H]6CC[C@H](Oc7ccc(C#N)c(Cl)c7)CC6)nn5)CC4)C3)cc1)=N[C@@H](Cc1ncco1)c1nnc(C)n1-2 [I-515]				< 0.5	< 0.5	> 3
C#Cc1ccc(O[C@H]2CC[C@H](NC(=O)c3ccc(N4CCC(C5CN(c6ccc(C7=NC8(CC8)c8nnc(C)n8-c8sc(C)c(C)c87)nc6)C5)CC4)nn3)CC2)cc1Cl [I-516]				> 3	< 0.5	> 3
Cc1sc2c(c1C)C(c1ccc(C3CCC4(CC3)CCN(c3ccc(C(=O)N[C@H]5CC[C@H](Oc6ccc(C#N)c(Cl)c6)CC5)nn3)C4)cc1)=NC1(CC1)c1nnc(C)n1-2 (stereo partly drawn) [I-517]		> 3			< 0.5	> 3
Cc1sc2c(c1C)C(c1ccc(C3CCC4(CC3)CCN(c3ccc(C(=O)N[C@H]5CC[C@H](Oc6ccc(C#N)c(Cl)c6)CC5)nn3)C4)cc1)=NC1(CC1)c1nnc(C)n1-2 (stereo partly drawn) [I-518]	< 0.5	< 0.5	> 3			
Cc1sc2c(c1C)C(c1ccc(C3CCC4(CCN(c5ccc(C(=O)N[C@H]6CC[C@H](Oc7ccc(C#N)c(Cl)c7)CC6)nn5)CC4)C3)cc1)=NC1(CC1)c1nnc(C)n1-2 (stereo partly drawn) [I-519]				< 0.5	< 0.5	> 3
Cc1sc2c(c1C)C(c1ccc(C3CCC4(CCN(c5ccc(C(=O)N[C@H]6CC[C@H](Oc7ccc(C#N)c(Cl)c7)CC6)nn5)CC4)C3)cc1)=NC1(CC1)c1nnc(C)n1-2 (stereo partly drawn) [I-520]	< 0.5	< 0.5	> 3			
Cc1sc2c(c1C)C(c1ccc(N3CCC4(CCN(c5ccc(C(=O)N[C@H]6CC[C@H](Oc7ccc(C#N)c(Cl)c7)CC6)nn5)C4)C3)cc1)=NC1(CC1)c1nnc(C)n1-2 (stereo partly drawn) [I-521]		1.5 to 3			< 0.5	< 0.5
Cc1sc2c(c1C)C(c1ccc(N3CCC4(CCN(c5ccc(C(=O)N[C@H]6CC[C@H](Oc7ccc(C#N)c(Cl)c7)CC6)nn5)C4)C3)cc1)=NC1(CC1)c1nnc(C)n1-2 (stereo partly drawn) [I-522]	< 0.5	0.5 to 1.5	< 0.5			
Cc1sc2c(c1C)C(c1ccc(OC3CCC4(CCCN(c5ccc(C(=O)N[C@H]6CC[C@H](Oc7ccc(C#N)c(Cl)c7)CC6)nn5)C4)C3)cc1)=NC1(CC1)c1nnc(C)n1-2 (stereo partly drawn) [I-523]		> 3	> 3		< 0.5	

Structure (SMILES)	GI50 [1] [µM]	GI50 [2] [µM]	GI50 [3] [µM]	GI50 ([2]; Homo sapiens, VCaP, 72 h) [µM]	GI50 ([1]; 72 h) [µM]	GI50 ([3]; 72 h) [µM]
Cc1sc2c(c1C)C(c1ccc(OC3CCC4(CCCN(c5ccc(C(=O)N[C@H]6CC[C@H](Oc7ccc(C#N)c(Cl)c7)CC6)nn5)C4)C3)cc1)=NC1(CC1)c1nnc(C)n1-2 (stereo partly drawn) [I-524]	< 0.5	> 3	> 3			
Cc1sc2c(c1C)C(c1ccc(OC3CCC4(CCCN(c5ccc(C(=O)N[C@H]6CC[C@H](Oc7ccc(C#N)c(Cl)c7)CC6)nn5)C4)C3)cc1)=NC1(CC1)c1nnc(C)n1-2 (stereo partly drawn) [I-525]	< 0.5	< 0.5	> 3			
Cc1sc2c(c1C)C(c1ccc(OC3CCC4(CCCN(c5ccc(C(=O)N[C@H]6CC[C@H](Oc7ccc(C#N)c(Cl)c7)CC6)nn5)C4)C3)cc1)=NC1(CC1)c1nnc(C)n1-2 (stereo partly drawn) [I-526]	< 0.5	< 0.5	0.5 to 1.5			
Cc1sc2c(c1C)C(c1ccc(CC3CCC4(C3)CN(c3ccc(C(=O)N[C@H]5CC[C@H](Oc6ccc(C#N)c(Cl)c6)CC5)nn3)CCO4)cc1)=NC1(CC1)c1nnc(C)n1-2 (stereo partly drawn) [I-527]				1.5 to 3	< 0.5	> 3
Cc1sc2c(c1C)C(c1ccc(OC3CC(CC4CCN(c5ccc(C(=O)N[C@H]6CC[C@H](Oc7ccc(C#N)c(Cl)c7)CC6)nn5)CC4)C3)cc1)=NC1(CC1)c1nnc(C)n1-2 (stereo partly drawn) [I-528]				< 0.5	< 0.5	> 3
Cc1sc2c(c1C)C(c1ccc(OC3CC(CC4CCN(c5ccc(C(=O)N[C@H]6CC[C@H](Oc7ccc(C#N)c(Cl)c7)CC6)nn5)CC4)C3)cc1)=NC1(CC1)c1nnc(C)n1-2 (stereo partly drawn) [I-529]	< 0.5	< 0.5	> 3			
CC[C@@H]1N=C(c2ccc(N3CCC4(CC3)CCN(c3ccc(C(=O)N[C@H]5CC[C@H](Oc6ccc(C#N)c(Cl)c6)CC5)nn3)C4)cc2)c2c(sc(C)c2C)-n2c(C)nnc21 [I-530]				> 3	< 0.5	< 0.5
CC[C@@H]1N=C(c2ccc(C#CC3CC4(C3)CN(c3ccc(C(=O)N[C@H]5CC[C@H](Oc6ccc(C#N)c(Cl)c6)CC5)nn3)C4)cc2)c2c(sc(C)c2C)-n2c(C)nnc21 [I-531]				< 0.5	< 0.5	< 0.5
Cc1sc2c(c1C)C(c1ccc(C3CCC4(CC3)CCN(c3ccc(C(=O)N[C@H]5CC[C@H](Oc6ccc(C#N)c(Cl)c6)CC5)nn3)CC4)cc1)=NC1(CC1)c1nnc(C)n1-2 [I-532]				< 0.5	< 0.5	> 3
Cc1sc2c(c1C)C(c1ccc(C3CCC4(CC3)CCN(c3ccc(C(=O)N[C@H]5CC[C@H](Oc6ccc(C#N)c(Cl)c6)CC5)nn3)C4)nc1)=N[C@@H](C)c1nnc(C)n1-2 (stereo partly drawn) [I-533]		< 0.5			< 0.5	< 0.5
Cc1sc2c(c1C)C(c1ccc(C3CCC4(CC3)CCN(c3ccc(C(=O)N[C@H]5CC[C@H](Oc6ccc(C#N)c(Cl)c6)CC5)nn3)C4)nc1)=N[C@@H](C)c1nnc(C)n1-2 (stereo partly drawn) [I-534]	< 0.5	> 3	< 0.5			
Cc1sc2c(c1C)C(c1ccc(OC3CCC4(CCCN(c5ccc(C(=O)N[C@H]6CC[C@H](Oc7ccc(C#N)c(Cl)c7)CC6)nn5)C4)C3)cc1)=N[C@@H](C)c1nnc(C)n1-2 (stereo partly drawn) [I-536]		> 3			< 0.5	> 3
Cc1sc2c(c1C)C(c1ccc(OC3CCC4(CCCN(c5ccc(C(=O)N[C@H]6CC[C@H](Oc7ccc(C#N)c(Cl)c7)CC6)nn5)C4)C3)cc1)=N[C@@H](C)c1nnc(C)n1-2 (stereo partly drawn) [I-537]	< 0.5	> 3	> 3			
Cc1sc2c(c1C)C(c1ccc(OC3CCC4(CCCN(c5ccc(C(=O)N[C@H]6CC[C@H](Oc7ccc(C#N)c(Cl)c7)CC6)nn5)C4)C3)cc1)=N[C@@H](C)c1nnc(C)n1-2 (stereo partly drawn) [I-538]	< 0.5	< 0.5	> 3			
Cc1sc2c(c1C)C(c1ccc(OC3CCC4(C3)CN(c3ccc(C(=O)N[C@H]5CC[C@H](Oc6ccc(C#N)c(Cl)c6)CC5)nn3)CCO4)cc1)=N[C@@H](C)c1nnc(C)n1-2 (stereo partly drawn) [I-539]		0.5 to 1.5	> 3		< 0.5	
